Assay results: patent EP2837626A1, “Indolinone derivatives as GRK5 modulators” (Max-Planck-Gesellschaft zur Förderung der Wissenschaften …, priority 2013, dated 2015)
Like-named read-outs stand apart in the source and are kept apart here.

How the values were obtained:
full length GRK5 = target: T1, full length GRK5 (Homo sapiens, UniProt P34947); assay: IC50 determination of compounds inhibiting GRK5 by ADP Glo Kinase Assay technology (Promega); type: biochemical
T1 construct: 6/2 fold concentrated full length GRK5 (Millipore, #14-714) in reaction buffer is added to each well; purchased Millipore 14-714

GRK5 = target: T2, GRK5 (Homo sapiens, UniProt P34947); assay: IC50 determination of compounds inhibiting GRK5 by Millipore KinaseProfiler (radiometric filtration binding assay); type: biochemical; details: 2 mg/mL casein, 40 minutes at room temperature
T2 construct: purchased Millipore
Procedure: IC50 values are determined by a radiometric based filtration binding assay, namely Millipore KinaseProfiler™. GRK5 is incubated with 8 mM MOPS pH 7.0, 0.2 mM EDTA, 2 mg/mL casein, 10 mM MgAcetate and […] (specific activity approx. 500 cpm/pmol, concentration as required). The reaction is initiated by the addition of the MgATP mix. After incubation for 40 minutes at room temperature, the reaction is stopped by the addition of 3 % phosphoric acid solution. 10 µL of the reaction is then spotted onto a P30 filtermat and washed three times for 5 minutes in 75 mM phosphoric acid and once in methanol prior to drying and scintillation counting.

[1] = 20 nM GRK5, 18.7 µM ATP, 10 µM casein, 12 concentrations, triplicates, read-out: GRK5 IC50

T2 sequence (P34947 whole entry): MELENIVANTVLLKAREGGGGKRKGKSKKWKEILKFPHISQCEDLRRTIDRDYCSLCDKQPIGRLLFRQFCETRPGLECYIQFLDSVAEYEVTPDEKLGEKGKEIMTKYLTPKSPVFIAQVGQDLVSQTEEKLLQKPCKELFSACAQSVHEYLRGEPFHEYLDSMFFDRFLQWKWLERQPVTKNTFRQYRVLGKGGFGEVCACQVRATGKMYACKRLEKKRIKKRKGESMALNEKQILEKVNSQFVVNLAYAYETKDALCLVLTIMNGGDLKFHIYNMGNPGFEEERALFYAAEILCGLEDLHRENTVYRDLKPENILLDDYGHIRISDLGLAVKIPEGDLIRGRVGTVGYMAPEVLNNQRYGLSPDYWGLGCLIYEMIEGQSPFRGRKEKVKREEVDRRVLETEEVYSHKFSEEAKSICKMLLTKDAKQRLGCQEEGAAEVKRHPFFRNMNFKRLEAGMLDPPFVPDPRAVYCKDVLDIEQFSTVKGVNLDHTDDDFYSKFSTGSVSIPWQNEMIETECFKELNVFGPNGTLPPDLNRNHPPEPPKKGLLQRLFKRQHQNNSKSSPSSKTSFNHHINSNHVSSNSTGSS
T1 sequence (P34947 whole entry): as above

| IC50 (full length GRK5; [1]) [µM] | IC50 (GRK5) [µM] | SMILES | IC50 (full length GRK5; read-out: GRK5 IC50, 20 nM GRK5, 18.7 µM ATP, 10 µM casein, 12 concentrations, triplicates) [µM] |
| --- | --- | --- | --- |
| < 5 | > 30 | COc1ccc([C@H](C)NC(=O)c2ccc3c(c2)/C(=C/c2[nH]c(C)c(C(=O)N4CCCCC4)c2C)C(=O)N3)cc1 [Compound 65, (3Z)-3-{[3,5-dimethyl-4-(piperidin-1-ylcarbonyl)-1H-pyrrol-2-yl]methylene}-N-[(1S)-1-(4-methoxyphenyl)ethyl]-2-oxoindoline-5-carboxamide] |  |
| < 5 | < 5 | CC[C@@H](NC(=O)c1ccc2c(c1)/C(=C/c1[nH]c(C)c(C(=O)N3CCC[C@H]3CN3CCCC3)c1C)C(=O)N2)c1ccccc1 [Compound 46, (3Z)-3-[(3,5-dimethyl-4-{[(2S)-2-(pyrrolidin-1-ylmethyl)pyrrolidin-1-yl]carbonyl}-1H-pyrrol-2-yl)methylene]-2-oxo-N-[(1R)-1-phenylpropyl]indoline-5-carboxamide] |  |
| < 5 |  | C[C@@H](NC(=O)c1ccc2c(c1)/C(=C/Nc1ccc(CN3CCCCC3)cc1)C(=O)N2)c1cccc(Cl)c1 [Compound 80, (3Z)-N-[(1R)-1-(3-chlorophenyl)ethyl]-2-oxo-3-({[4-(piperidin-1-ylmethyl)phenyl]amino}methylene)indoline-5-carboxamide] |  |
| < 5 |  | Cc1ccc([C@@H](C)NC(=O)c2ccc3c(c2)/C(=C/c2[nH]c(C)c(C(=O)N4CCN(C)CC4)c2C)C(=O)N3)cc1 [Compound 32, (3Z)-3-({3,5-dimethyl-4-[(4-methylpiperazin-1-yl)carbonyl]-1H-pyrrol-2-yl}methylene)-N-[(1R)-1-(4-methylphenyl)ethyl]-2-oxoindoline-5-carboxamide] |  |
| < 5 |  | CC[C@@H](NC(=O)c1ccc2c(c1)/C(=C/c1[nH]c(C)c(C(=O)NCCN(CC)CC)c1C)C(=O)N2)c1ccccc1 [Compound 61, (3Z)-3-[(4-{[2-(diethylamino)ethyl]carbamoyl}-3,5-dimethyl-1H-pyrrol-2-yl)methylene]-2-oxo-N-[(1R)-1-phenylpropyl]indoline-5-carboxamide] |  |
| > 30 | > 30 | CC[C@H](NC(=O)c1ccc2c(c1)/C(=C/c1[nH]c(C)c(C(=O)NCCN(CC)CC)c1C)C(=O)N2)c1ccccc1 [Compound 62, (3Z)-3-[(4-{[2-(diethylamino)ethyl]carbamoyl}-3,5-dimethyl-1H-pyrrol-2-yl)methylene]-2-oxo-N-[(1S)-1-phenylpropyl]indoline-5-carboxamide] |  |
| > 30 | > 30 | CC[C@H](NC(=O)c1ccc2c(c1)/C(=C/c1[nH]c(C)c(C(=O)N3CCC(N4CCN(C)CC4)CC3)c1C)C(=O)N2)c1ccccc1 [Compound 52, (3Z)3-[(3,5-dimethyl-4-{[4-(4-methylpiperazin-1-yl)piperidin-1-yl]carbonyl}-1H-pyrrol-2-yl)methylene]-2-oxo-N-[(1S)-1-phenylpropyl]indoline-5-carboxamide] |  |
| > 30 | > 30 | CC[C@H](NC(=O)c1ccc2c(c1)/C(=C/c1[nH]c(C)c(C(=O)N3CCCCC3)c1C)C(=O)N2)c1ccccc1 [Compound 57, (3Z)-3-{[3,5-dimethyl-4-(piperidin-1-ylcarbonyl)-1H-pyrrol-2-yl]methylene}-2-oxo-N-[(1S)-1-phenylpropyl]indoline-5-carboxamide] |  |
| < 5 |  | Cc1[nH]c(/C=C2\C(=O)Nc3ccc(C(=O)N[C@H](C)c4ccccc4)cc32)c(C)c1C(=O)N1CCCCC1 [Compound 14, (3Z)-3-{[3,5-dimethyl-4-(piperidin-1-ylcarbonyl)-1H-pyrrol-2-yl]methylene}-2-oxo-N-[(1R)-1-phenylethyl]indoline-5-carboxamide] |  |
| < 5 |  | Cc1[nH]c(/C=C2\C(=O)Nc3ccc(C(=O)N[C@H](C)c4ccccc4)cc32)c(C)c1C(=O)N1CCN(C)CC1 [Compound 15, (3Z)-3-({3,5-dimethyl-4-[(4-methylpiperazin-1-yl)carbonyl]-1H-pyrrol-2-yl}methylene)-2-oxo-N-[(1R)-1-phenylethyl]indoline-5-carboxamide] |  |
| < 5 |  | CCC(NC(=O)c1ccc2c(c1)/C(=C/c1[nH]c(C)c(C(=O)NCCN3CCCC3)c1C)C(=O)N2)c1ccc(F)c(F)c1 (centres unmarked) [Compound 10, (3Z)-N-[1-(3,4-difluorophenyl)propyl]-3-({3,5-dimethyl-4-[(2-pyrrolidin-1-ylethyl)carbamoyl]-1H-pyrrol-2-yl}methylene)-2-oxoindoline-5-carboxamide] |  |
| < 5 | < 5 | Cc1[nH]c(/C=C2\C(=O)Nc3ccc(C(=O)N[C@H](C)c4cccc(Cl)c4)cc32)c(C)c1C(=O)N1CCCCC1 [Compound 55, (3Z)-N-[(1R)-1-(3-chlorophenyl)ethyl]-3-{[3,5-dimethyl-4-(piperidin-1-ylcarbonyl)-1H-pyrrol-2-yl]methylene}-2-oxoindoline-5-carboxamide] |  |
| < 5 |  | COc1ccc([C@@H](C)NC(=O)c2ccc3c(c2)/C(=C/c2[nH]c(C)c(C(=O)N4CCN(C)CC4)c2C)C(=O)N3)cc1 [Compound 21, (3Z)-3-({3,5-dimethyl-4-[(4-methylpiperazin-1-yl)carbonyl]-1H-pyrrol-2-yl}methylene)-N-[(1R)-1-(4-methoxyphenyl)ethyl]-2-oxoindoline-5-carboxamide] |  |
| < 5 |  | COc1cccc([C@@H](C)NC(=O)c2ccc3c(c2)/C(=C/Nc2ccc(CN4CCCCC4)cc2)C(=O)N3)c1 [Compound 79, (3Z)-N-[(1R)-1-(3-methoxyphenyl)ethyl]-2-oxo-3-({[4-(piperidin-1-ylmethyl)phenyl]amino}methylene)indoline-5-carboxamide] |  |
| 5 to 20 |  | CC[C@@H](NC(=O)c1ccc2c(c1)/C(=C/c1[nH]c(C)c(C(=O)N3CCN(C)CC3)c1C)C(=O)N2)c1ccccc1 [Compound 7, (3Z)-3-({3,5-dimethyl-4-[(4-methylpiperazin-1-yl)carbonyl]-1H-pyrrol-2-yl}methylene)-2-oxo-N-[(1R)-1-phenylpropyl]indoline-5-carboxamide] |  |
| < 5 |  | Cc1[nH]c(/C=C2\C(=O)Nc3ccc(C(=O)O)cc32)c(C)c1C(=O)NCCN1CCCC1 [Compound 2] |  |
| 5 to 20 |  | Cc1cccc(C(C)NC(=O)c2ccc3c(c2)/C(=C/c2[nH]c(C)c(C(=O)N4CCN(C)CC4)c2C)C(=O)N3)c1 (centres unmarked) [Compound 51, (3Z)-3-({3,5-dimethyl-4-[(4-methylpiperazin-1-yl)carbonyl]-1H-pyrrol-2-yl}methylene)-N-[1-(3-methylphenyl)ethyl]-2-oxoindoline-5-carboxamide] |  |
|  | < 5 | Cc1[nH]c(/C=C2\C(=O)Nc3ccc(C(=O)N[C@H](C)c4ccccc4)cc32)c(C)c1C(=O)N1CCC[C@H]1CN1CCCC1 [Compound 16, (3Z)-3-[(3,5-dimethyl-4-{[(2S)-2-(pyrrolidin-1-ylmethyl)pyrrolidin-1-yl]carbonyl}-1H-pyrrol-2-yl)methylene]-2-oxo-N-[(1R)-1-phenylethyl]indoline-5-carboxamide] |  |
| < 5 |  | CCC(NC(=O)c1ccc2c(c1)/C(=C/c1[nH]c(C)c(C(=O)NCCN3CCCC3)c1C)C(=O)N2)c1ccc(Cl)cc1 (centres unmarked) [Compound 13, (3Z)-N-[1-(4-chlorophenyl)propyl]-3-({3,5-dimethyl-4-[(2-pyrrolidin-1-ylethyl)carbamoyl]-1H-pyrrol-2-yl}methylene)-2-oxoindoline-5-carboxamide] |  |
| < 5 |  | CC[C@@H](NC(=O)c1ccc2c(c1)/C(=C/c1[nH]c(C)c(C(=O)NCCN3CCCC3)c1C)C(=O)N2)c1ccccc1 [Compound 6, (3Z)-3-({3,5-dimethyl-4-[(2-pyrrolidin-1-ylethyl)carbamoyl]-1H-pyrrol-2-yl}methylene)-2-oxo-N-[(1R)-1-phenylpropyl]indoline-5-carboxamide] |  |
| < 5 |  | C[C@@H](NC(=O)c1ccc2c(c1)/C(=C/Nc1ccc(CN3CCCCC3)cc1)C(=O)N2)c1ccccc1 [Compound 78, (3Z)-2-oxo-N-[(1R)-1-phenylethyl]-3-({[4-(piperidin-1-ylmethyl)phenyl]amino}methylene)indoline-5-carboxamide] |  |
| < 5 |  | Cc1[nH]c(/C=C2\C(=O)Nc3ccc(C(=O)N[C@H](C)c4ccc(Cl)cc4)cc32)c(C)c1C(=O)N1CCCC1 [Compound 67, (3Z)-N-[(1R)-1-(4-chlorophenyl)ethyl]-3-{[3,5-dimethyl-4-(pyrrolidin-1-ylcarbonyl)-1H-pyrrol-2-yl]methylene}-2-oxoindoline-5-carboxamide] |  |
| < 5 |  | CCC(NC(=O)c1ccc2c(c1)/C(=C/c1[nH]c(C)c(C(=O)NCCN3CCCC3)c1C)C(=O)N2)c1cccc(Cl)c1 (centres unmarked) [Compound 11, (3Z)-N-[1-(3-chlorophenyl)propyl]-3-({3,5-dimethyl-4-[(2-pyrrolidin-1-ylethyl)carbamoyl]-1H-pyrrol-2-yl}methylene)-2-oxoindoline-5-carboxamide] |  |
| < 5 |  | CC[C@@H](NC(=O)c1ccc2c(c1)/C(=C/Nc1ccc(CN3CCCCC3)cc1)C(=O)N2)c1ccccc1 [Compound 69, (3Z)-2-oxo-N-[(1R)-1-phenylpropyl]-3-({[4-(piperidin-1-ylmethyl)phenyl]amino}methylene)-indoline-5-carboxamide] |  |

| SMILES | IC50 (full length GRK5; [1]) [µM] | IC50 (GRK5) [µM] | IC50 (full length GRK5; read-out: GRK5 IC50, 20 nM GRK5, 18.7 µM ATP, 10 µM casein, 12 concentrations, triplicates) [µM] |
| --- | --- | --- | --- |
| COc1ccc([C@@H](C)NC(=O)c2ccc3c(c2)/C(=C/Nc2ccc(CN4CCCCC4)cc2)C(=O)N3)cc1 [Compound 70, (3Z)-N-[(1R)-1-(4-methoxyphenyl)ethyl]-2-oxo-3-({[4-(piperidin-1-ylmethyl)phenyl]amino}methylene)indoline-5-carboxamide] |  | < 5 | < 5 |
